Assay results taken from US20140205537A1, “LRRK2 INHIBITORS” (ZENOBIA THERAPEUTICS, INC., priority 2011, published 2014).

Key:
Type in all cases: biochemical
Tie2 = Tie2 (Homo sapiens, UniProt Q02763); test: Kinase selectivity panel: Tie2
CK1 gamma2 = CK1 gamma2 (Homo sapiens, UniProt P78368); test: Kinase selectivity panel: CK1 gamma2
AMPK A1/B1/G1 = AMPK A1/B1/G1 (Homo sapiens, UniProt Q13131); test: Kinase selectivity panel: AMPK A1/B1/G1
PLK1 = PLK1 (Homo sapiens, UniProt P53350); test: Kinase selectivity panel: PLK1
DYRK3 = DYRK3 (Homo sapiens, UniProt O43781); test: Kinase selectivity panel: DYRK3
P70S6K = P70S6K (Homo sapiens, UniProt P23443); test: Kinase selectivity panel: P70S6K
MARK2 = MARK2 (Homo sapiens, UniProt Q7KZI7); test: Kinase selectivity panel: MARK2
PKA = PKA (Homo sapiens, UniProt P17612); test: Kinase selectivity panel: PKA
FGFR1 = FGFR1 (Homo sapiens, UniProt P11362); test: Kinase selectivity panel: FGFR1
MLK1 = MLK1 (Homo sapiens, UniProt P80192); test: Kinase selectivity panel: MLK1
P38 alpha = P38 alpha (Homo sapiens, UniProt Q16539); test: Kinase selectivity panel: P38 alpha
SRC = SRC (Homo sapiens, UniProt P12931); test: Kinase selectivity panel: SRC
AKT1 = AKT1 (Homo sapiens, UniProt P31749); test: Kinase selectivity panel: AKT1
PKC beta1 = PKC beta1 (Homo sapiens, UniProt P05771); test: Kinase selectivity panel: PKC beta1
KDR = KDR (Homo sapiens, UniProt P35968); test: Kinase selectivity panel: KDR
PAK4 = PAK4 (Homo sapiens, UniProt O96013); test: Kinase selectivity panel: PAK4
EGFR = EGFR (Homo sapiens, UniProt P00533); test: Kinase selectivity panel: EGFR
MAPKAPK2 = MAPKAPK2 (Homo sapiens, UniProt P49137); test: Kinase selectivity panel: MAPKAPK2
HER2 = HER2 (Homo sapiens, UniProt P04626); test: Kinase selectivity panel: HER2
TRKA = TRKA (Homo sapiens, UniProt P04629); test: Kinase selectivity panel: TRKA
CDK1/cyclinB = CDK1/cyclinB (Homo sapiens, UniProt P06493); test: Kinase selectivity panel: CDK1/cyclinB
INSR = INSR (Homo sapiens, UniProt P06213); test: Kinase selectivity panel: INSR
AURKA = target: T1, AURKA (Homo sapiens, UniProt O14965); test: Kinase selectivity panel: AURKA
T1 sequence (O14965 1-403): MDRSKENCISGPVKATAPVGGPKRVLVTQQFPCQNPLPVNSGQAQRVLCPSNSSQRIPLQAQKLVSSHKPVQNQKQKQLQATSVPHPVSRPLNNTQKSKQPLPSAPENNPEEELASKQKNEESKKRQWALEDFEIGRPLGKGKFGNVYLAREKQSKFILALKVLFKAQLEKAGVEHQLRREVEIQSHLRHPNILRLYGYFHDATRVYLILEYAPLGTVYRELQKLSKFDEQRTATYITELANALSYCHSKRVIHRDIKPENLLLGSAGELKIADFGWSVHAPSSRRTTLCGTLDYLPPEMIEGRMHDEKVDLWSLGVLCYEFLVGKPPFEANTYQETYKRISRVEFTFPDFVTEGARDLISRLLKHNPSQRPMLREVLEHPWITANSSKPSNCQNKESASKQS

TAK1-TAB1 = TAK1-TAB1 (Homo sapiens, UniProt O43318); test: Kinase selectivity panel: TAK1-TAB1
Sequence of TAK1-TAB1 (O43318 1-303 limits assumed): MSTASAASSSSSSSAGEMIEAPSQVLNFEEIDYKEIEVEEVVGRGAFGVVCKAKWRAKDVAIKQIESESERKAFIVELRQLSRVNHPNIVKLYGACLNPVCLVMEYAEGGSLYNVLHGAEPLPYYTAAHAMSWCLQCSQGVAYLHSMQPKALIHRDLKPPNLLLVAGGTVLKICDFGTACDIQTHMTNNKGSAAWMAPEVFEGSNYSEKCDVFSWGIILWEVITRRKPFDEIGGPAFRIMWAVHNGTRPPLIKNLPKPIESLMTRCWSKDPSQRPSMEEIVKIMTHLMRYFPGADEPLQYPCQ
Sequence of TAK1-TAB1 (Q15750 437-504 partner limits assumed): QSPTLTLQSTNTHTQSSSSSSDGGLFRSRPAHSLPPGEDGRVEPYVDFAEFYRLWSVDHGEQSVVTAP

Sequence of MARK2 (Q7KZI7 whole entry, species assumed): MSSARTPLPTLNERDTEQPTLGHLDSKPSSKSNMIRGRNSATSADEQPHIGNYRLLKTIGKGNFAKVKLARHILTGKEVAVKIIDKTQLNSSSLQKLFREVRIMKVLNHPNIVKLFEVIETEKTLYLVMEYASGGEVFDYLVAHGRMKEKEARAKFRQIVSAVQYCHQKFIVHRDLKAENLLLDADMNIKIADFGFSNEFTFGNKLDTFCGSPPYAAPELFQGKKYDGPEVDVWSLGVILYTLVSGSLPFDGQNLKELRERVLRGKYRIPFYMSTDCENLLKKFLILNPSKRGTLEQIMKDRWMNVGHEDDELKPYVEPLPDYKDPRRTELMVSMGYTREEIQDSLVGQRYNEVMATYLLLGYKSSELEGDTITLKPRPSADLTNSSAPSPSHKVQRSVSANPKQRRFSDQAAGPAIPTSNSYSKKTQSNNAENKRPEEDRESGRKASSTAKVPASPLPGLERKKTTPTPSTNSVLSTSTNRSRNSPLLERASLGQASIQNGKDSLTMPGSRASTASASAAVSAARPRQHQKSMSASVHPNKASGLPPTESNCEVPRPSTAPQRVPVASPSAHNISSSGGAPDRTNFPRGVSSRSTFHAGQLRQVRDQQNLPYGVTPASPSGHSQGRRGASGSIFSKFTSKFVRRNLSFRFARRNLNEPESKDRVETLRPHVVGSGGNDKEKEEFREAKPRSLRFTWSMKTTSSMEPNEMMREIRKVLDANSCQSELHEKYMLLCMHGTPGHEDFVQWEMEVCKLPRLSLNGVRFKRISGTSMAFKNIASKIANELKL
Sequence of PAK4 (O96013 whole entry, species assumed): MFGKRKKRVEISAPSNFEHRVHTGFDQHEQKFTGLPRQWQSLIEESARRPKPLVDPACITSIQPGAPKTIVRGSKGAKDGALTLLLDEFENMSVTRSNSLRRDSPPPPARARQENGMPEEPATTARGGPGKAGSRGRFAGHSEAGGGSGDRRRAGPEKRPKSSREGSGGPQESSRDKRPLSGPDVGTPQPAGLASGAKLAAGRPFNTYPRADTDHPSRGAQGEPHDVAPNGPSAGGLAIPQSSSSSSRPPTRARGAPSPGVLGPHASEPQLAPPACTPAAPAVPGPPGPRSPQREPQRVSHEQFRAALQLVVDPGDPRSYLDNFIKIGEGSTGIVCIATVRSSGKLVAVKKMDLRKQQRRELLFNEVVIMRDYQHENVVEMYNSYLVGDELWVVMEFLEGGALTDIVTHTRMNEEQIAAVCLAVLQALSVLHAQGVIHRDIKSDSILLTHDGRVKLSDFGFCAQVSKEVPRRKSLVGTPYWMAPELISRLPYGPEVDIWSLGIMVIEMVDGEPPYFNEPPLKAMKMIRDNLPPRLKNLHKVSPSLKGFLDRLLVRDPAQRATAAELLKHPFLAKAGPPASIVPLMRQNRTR
Sequence of SRC (P12931 whole entry, species assumed): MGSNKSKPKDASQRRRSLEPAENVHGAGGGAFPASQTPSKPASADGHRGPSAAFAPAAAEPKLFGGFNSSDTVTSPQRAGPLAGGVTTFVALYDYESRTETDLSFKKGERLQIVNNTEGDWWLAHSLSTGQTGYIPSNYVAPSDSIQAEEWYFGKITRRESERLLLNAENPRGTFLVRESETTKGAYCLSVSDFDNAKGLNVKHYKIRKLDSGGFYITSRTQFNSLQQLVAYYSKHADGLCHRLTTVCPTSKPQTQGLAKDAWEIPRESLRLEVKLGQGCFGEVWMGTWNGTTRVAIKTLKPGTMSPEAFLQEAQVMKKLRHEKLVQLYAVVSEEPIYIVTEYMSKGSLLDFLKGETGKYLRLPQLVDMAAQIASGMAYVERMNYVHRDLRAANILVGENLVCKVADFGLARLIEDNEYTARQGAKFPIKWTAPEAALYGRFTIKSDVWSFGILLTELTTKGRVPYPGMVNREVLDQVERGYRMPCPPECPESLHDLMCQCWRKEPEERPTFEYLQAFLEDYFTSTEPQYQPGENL
Sequence of AKT1 (P31749 whole entry, species assumed): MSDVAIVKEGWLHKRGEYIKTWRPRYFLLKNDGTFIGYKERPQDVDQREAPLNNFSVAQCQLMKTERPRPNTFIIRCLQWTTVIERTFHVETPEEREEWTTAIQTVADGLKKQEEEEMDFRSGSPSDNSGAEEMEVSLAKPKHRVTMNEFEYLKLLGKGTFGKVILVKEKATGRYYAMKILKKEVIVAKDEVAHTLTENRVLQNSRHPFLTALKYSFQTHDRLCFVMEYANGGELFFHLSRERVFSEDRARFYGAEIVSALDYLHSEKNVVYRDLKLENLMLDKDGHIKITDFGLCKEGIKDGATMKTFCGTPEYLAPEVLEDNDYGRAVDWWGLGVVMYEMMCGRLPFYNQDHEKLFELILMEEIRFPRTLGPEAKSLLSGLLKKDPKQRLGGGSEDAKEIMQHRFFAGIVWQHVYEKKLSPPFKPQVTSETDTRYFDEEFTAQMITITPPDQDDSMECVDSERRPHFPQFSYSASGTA
Sequence of INSR (P06213 28-1382, species assumed): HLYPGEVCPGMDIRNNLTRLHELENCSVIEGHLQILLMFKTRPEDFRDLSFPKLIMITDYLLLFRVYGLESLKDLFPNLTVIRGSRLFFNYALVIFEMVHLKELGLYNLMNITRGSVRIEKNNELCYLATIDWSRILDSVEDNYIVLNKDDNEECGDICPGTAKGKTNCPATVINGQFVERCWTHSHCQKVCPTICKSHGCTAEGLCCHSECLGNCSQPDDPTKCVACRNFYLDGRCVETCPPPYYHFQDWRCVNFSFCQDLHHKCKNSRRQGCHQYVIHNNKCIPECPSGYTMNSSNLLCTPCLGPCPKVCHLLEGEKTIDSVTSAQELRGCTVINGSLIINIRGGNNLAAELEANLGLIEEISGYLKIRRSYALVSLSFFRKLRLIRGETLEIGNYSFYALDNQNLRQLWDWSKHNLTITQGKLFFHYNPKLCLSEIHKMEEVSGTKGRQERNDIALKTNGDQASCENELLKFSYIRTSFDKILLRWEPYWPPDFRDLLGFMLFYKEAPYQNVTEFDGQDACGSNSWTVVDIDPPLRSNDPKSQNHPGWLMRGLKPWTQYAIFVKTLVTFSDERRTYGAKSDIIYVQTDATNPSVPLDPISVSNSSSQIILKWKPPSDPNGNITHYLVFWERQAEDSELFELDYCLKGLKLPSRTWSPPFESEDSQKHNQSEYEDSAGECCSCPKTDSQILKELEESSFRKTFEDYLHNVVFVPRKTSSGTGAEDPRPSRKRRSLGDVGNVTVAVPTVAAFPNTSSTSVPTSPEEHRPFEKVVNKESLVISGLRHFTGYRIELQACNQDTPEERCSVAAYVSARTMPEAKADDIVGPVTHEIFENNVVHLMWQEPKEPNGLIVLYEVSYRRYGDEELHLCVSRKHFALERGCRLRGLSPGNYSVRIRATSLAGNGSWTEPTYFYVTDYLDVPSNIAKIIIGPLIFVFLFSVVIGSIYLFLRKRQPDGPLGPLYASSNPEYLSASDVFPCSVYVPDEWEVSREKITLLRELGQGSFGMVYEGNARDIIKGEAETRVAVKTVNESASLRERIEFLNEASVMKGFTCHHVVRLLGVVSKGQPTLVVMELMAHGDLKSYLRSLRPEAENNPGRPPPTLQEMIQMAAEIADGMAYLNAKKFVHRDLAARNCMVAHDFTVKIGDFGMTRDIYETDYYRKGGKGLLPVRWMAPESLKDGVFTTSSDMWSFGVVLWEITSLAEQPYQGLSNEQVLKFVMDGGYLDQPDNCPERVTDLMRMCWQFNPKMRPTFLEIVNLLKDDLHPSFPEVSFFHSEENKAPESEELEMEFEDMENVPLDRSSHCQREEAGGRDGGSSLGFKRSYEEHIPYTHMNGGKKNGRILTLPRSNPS
Sequence of CDK1/cyclinB (P06493 whole entry, species assumed): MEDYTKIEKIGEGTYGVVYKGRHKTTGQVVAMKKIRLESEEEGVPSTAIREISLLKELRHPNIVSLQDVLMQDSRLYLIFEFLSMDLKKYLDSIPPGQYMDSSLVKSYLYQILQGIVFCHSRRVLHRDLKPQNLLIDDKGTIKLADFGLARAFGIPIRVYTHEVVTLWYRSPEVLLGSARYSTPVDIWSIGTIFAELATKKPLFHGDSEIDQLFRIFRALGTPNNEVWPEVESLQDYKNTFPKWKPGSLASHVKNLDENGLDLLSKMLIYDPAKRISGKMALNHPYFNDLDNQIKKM
Sequence of CDK1/cyclinB (P14635 whole entry partner, species assumed): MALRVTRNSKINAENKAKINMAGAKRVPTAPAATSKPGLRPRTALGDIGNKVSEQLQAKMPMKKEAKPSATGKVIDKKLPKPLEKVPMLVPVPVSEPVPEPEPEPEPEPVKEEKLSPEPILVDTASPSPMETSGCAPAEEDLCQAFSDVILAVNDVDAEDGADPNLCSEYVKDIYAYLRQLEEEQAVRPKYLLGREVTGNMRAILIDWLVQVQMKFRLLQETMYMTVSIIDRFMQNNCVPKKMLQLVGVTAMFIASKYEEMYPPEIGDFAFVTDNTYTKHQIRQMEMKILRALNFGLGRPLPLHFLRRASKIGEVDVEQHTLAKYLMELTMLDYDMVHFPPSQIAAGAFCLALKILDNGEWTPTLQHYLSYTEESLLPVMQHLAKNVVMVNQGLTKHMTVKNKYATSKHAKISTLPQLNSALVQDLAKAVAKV

inhibition at 0.1 µM (Tie2): -2%
inhibition at 0.1 µM (CK1 gamma2): 6%
inhibition at 0.1 µM (AMPK A1/B1/G1): -1%
inhibition at 0.1 µM (PLK1): 12%
inhibition at 0.1 µM (DYRK3): 2%
inhibition at 0.1 µM (P70S6K): 5%
IC50 (MARK2): 7.94 µM
inhibition at 0.1 µM (MARK2; @0.1 uM): 5%
inhibition at 0.1 µM (PKA): 2%
inhibition at 0.1 µM (FGFR1): 9%
inhibition at 0.1 µM (MLK1): -17%
inhibition at 0.1 µM (P38 alpha): 12%
inhibition at 0.1 µM (SRC): 13%
inhibition at 0.1 µM (AKT1): -2%
inhibition at 0.1 µM (PKC beta1): 4%
inhibition at 0.1 µM (KDR): 1%
inhibition at 0.1 µM (PAK4): 1%
inhibition at 0.1 µM (EGFR): -3%
inhibition at 0.1 µM (MAPKAPK2): 4%
inhibition at 0.1 µM (HER2): 4%
inhibition at 0.1 µM (TRKA): 11%
inhibition at 0.1 µM (CDK1/cyclinB): 0%
inhibition at 0.1 µM (INSR): 4%
IC50 (AURKA): > 10 µM
inhibition at 0.1 µM (AURKA; @0.1 uM): -1%
inhibition at 0.1 µM (TAK1-TAB1): -3%
Structure (SMILES): COc1ccc2c(c1)/C(=C/c1cnc(C3CCOCC3)[nH]1)C(=O)N2 [Compound 18, (3Z)-5-methoxy-3-[(2-tetrahydropyran-4-yl-1H-imidazol-5-yl)methylene]indolin-2-one]
